The results in this text go back to US20040224958A1, “Pyridopyrimidinone derivatives for treatment of neurodegenerative disease” (priority 2000, published 2004).

Where two headings read alike, the source gives them in different places.

One experiment concerns the target cdk4/D (Homo sapiens, UniProt P11802). Description: Cyclin-Dependent Kinase 4 (cdk4) Assay. The experiment is classed as biochemical. Conditions: read-out: cdk4/D IC50. The protocol: A typical assay, for instance, measures inhibitory activity against the cyclin D dependent kinase 4 enzyme (cdk4/D). […] The cdk4 assay was carried out as follows.
Cyclin-Dependent Kinase 4 (cdk4) Assay
All components except the ATP were added to the wells, and the plate was placed on a plate mixer for 2 minutes. The reaction was started by adding [^32P]ATP and the plate was incubated at 25° C. for 15 minutes. The reaction was terminated by addition of 0.1 mL of 20% trichloroacetic acid (TCA). The plate was kept at 4° C. for at least 1 hour to allow the substrate to precipitate. The wells were then washed five times with 0.2 mL of 10% TCA and ^32P incorporation was determined with a beta plate counter (Wallac Inc., Gaithersburg, Md.).

A further experiment deals with Cdk5/p25 (Homo sapiens, UniProt Q00535). Kind of experiment: Cyclin-Dependent Kinase 5 High Throughput Screening (cdk5-HTS) Assay. As to conditions: high throughput screen. Format: biochemical. The protocol:
Cyclin-Dependent Kinase 5 High Throughput Screening (cdk5-HTS) Assay
Enzyme assays for IC50 determinations were performed in 96-Pierce Reacti-Bind™ White Opaque Glutatione Coated Plates (Cat. No. 15240B).
The total volume was 0.100 mL containing a final concentration of 50 mM TRIS (tris[hydroxymethyl]aminomethane) at pH 7.4, 50 mM NaCl, 10 mM MgCl2, 5 mM dithiothreitol, 20 μM ATP containing 16 μCi/mL of Redivue[y33P]ATP (Amersham Pharmacia Biotech Cat. No. AH9968), 1.0 μg/mL Cdk5/p25, 20 μg/mL GST-RbCOOH, and appropriate dilutions of a compound of the present invention. The reaction was started by adding[^33P]ATP, and the plate was shaken for 30 seconds, then incubated at room temperature for 30 minutes. The reaction was terminated by addition of 0.05 mL of 120 mM EDTA. The plate was kept at room temperature for 45 minutes to allow substrate to bind to the walls of the plate. The wells were then washed three times with 0.2 mL of 1×PBS. Once thoroughly dry, 0.140 mL of MicroScint™2O (Packard Bioscience Cat. No. 87-9081) cocktail was added to all wells. The incorporation of ^33P was determined with a beta plate counter (Packard Topcount).

The next experiment concerns the target cdk2/cyclinE (Homo sapiens, UniProt P24941). Kind of experiment: Cyclin-Dependent Kinase Assay cdk2/cyclinE.
The next experiment has as its target cdk2/cyclinA (Homo sapiens, UniProt P24941). Kind of experiment: Cyclin-Dependent Kinase Assay cdk2/cyclinA.
A further experiment addresses cdc2/cyclinB (Homo sapiens, UniProt P06493). Kind of experiment: Cyclin-Dependent Kinase Assay cdc2/cyclinB.

Sequence of cdc2/cyclinB (P06493 whole entry): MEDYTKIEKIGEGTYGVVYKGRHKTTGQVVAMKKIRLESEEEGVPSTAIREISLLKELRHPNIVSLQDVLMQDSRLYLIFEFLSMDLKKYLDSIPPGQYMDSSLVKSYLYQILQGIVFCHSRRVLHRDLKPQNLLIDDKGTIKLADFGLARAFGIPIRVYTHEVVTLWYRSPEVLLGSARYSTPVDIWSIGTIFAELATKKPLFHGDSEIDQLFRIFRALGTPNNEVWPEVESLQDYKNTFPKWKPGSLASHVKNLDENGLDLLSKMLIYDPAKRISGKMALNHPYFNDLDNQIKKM
Sequence of cdc2/cyclinB (P14635 whole entry, further chain): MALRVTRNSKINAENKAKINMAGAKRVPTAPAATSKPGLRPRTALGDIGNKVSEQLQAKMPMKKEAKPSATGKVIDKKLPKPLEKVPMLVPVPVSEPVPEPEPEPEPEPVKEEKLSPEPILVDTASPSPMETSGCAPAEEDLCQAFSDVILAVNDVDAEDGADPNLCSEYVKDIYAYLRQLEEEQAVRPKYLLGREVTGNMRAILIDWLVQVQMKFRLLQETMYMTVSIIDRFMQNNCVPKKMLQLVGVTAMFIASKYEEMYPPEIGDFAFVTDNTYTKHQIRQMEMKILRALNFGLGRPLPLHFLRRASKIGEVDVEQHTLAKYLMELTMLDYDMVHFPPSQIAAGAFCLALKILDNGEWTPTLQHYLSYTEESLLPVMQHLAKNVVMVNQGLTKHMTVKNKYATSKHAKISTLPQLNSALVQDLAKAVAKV
Sequence of cdk4/D (P11802 whole entry): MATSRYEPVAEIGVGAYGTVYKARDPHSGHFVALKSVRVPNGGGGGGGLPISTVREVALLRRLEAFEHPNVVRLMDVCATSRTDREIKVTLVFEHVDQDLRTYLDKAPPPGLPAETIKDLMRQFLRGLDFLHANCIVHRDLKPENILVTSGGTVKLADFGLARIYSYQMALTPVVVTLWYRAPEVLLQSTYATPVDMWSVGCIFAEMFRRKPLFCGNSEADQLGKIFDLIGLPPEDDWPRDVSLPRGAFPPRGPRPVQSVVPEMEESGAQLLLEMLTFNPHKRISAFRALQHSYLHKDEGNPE
Sequence of cdk4/D (P24385 whole entry, further chain): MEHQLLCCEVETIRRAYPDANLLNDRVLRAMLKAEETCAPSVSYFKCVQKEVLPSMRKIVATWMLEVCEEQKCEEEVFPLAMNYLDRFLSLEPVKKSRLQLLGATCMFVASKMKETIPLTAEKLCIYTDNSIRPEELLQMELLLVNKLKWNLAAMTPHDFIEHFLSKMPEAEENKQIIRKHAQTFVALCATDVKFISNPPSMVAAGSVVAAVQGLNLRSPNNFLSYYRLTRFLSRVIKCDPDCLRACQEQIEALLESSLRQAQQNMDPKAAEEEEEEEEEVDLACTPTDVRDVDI

As for “2-(3-Chloro-4-iodo-phenylamino)-8-propyl-8H-pyrido[2,3-d]pyrimidin-7-one [Example 573]”, the IC50 was 190 nM at cdk4/D; 100 nM against Cdk5/p25; 180 nM at cdk2/cyclinE (read-out: cdk2/E IC50); 820 nM on cdk2/cyclinA (read-out: cdk2/A IC50); 260 nM on cdc2/cyclinB (read-out: cdk1/B IC50).

With “2-(3-Hydroxy-4-methoxy-phenylamino)-8-propyl-8H-pyrido[2,3-d]pyrimidin-7-one [Example 296]”, the IC50 at cdk4/D amounted to 540 nM; at Cdk5/p25 it was 120 nM; on cdk2/cyclinE (read-out: cdk2/E IC50), 240 nM; on cdk2/cyclinA (read-out: cdk2/A IC50), 960 nM; on cdc2/cyclinB (read-out: cdk1/B IC50), 440 nM.

As for `CCn1c(=O)ccc2cnc(Nc3cc(F)cc(F)c3)nc21` [Example 303, 2-(3,5-Difluoro-phenylamino)-8-ethyl-8H-pyrido[2,3-d]pyrimidin-7-one], the IC50 at Cdk5/p25 stood at 470 nM; at cdk2/cyclinE (cdk2/E IC50), 840 nM; against cdk2/cyclinA (cdk2/A IC50), 1200 nM; on cdc2/cyclinB it was 930 nM.

Consider `CCn1c(=O)ccc2cnc(Nc3cccc(C(F)(F)F)c3)nc21` [Example 305, 8-Ethyl-2-(3-trifluoromethyl-phenylamino)-8H-pyrido[2,3-d]pyrimidin-7-one], for which the IC50 at Cdk5/p25 is 240 nM; against cdk2/cyclinE (cdk2/E IC50), 670 nM; on cdk2/cyclinA (cdk2/A IC50) it was 1100 nM; on cdc2/cyclinB it was 550 nM.

With `CCCn1c(=O)ccc2cnc(Nc3ccc(Cl)c(C(F)(F)F)c3)nc21` [Example 312, 2-(4-Chloro-3-trifluoromethyl-phenylamino)-8-propyl-8H-pyrido[2,3-d]pyrimidin-7-one], the IC50 at Cdk5/p25 stood at 112 nM; at cdk2/cyclinE (read-out: cdk2/E IC50), 330 nM; on cdk2/cyclinA (read-out: cdk2/A IC50), 2670 nM; at cdc2/cyclinB (read-out: cdk1/B IC50) it was 268 nM.

With `CCCn1c(=O)ccc2cnc(Nc3ccc(F)c(F)c3)nc21` [Example 343, 2-(3,4-Difluoro-phenylamino)-8-propyl-8H-pyrido[2,3-d]pyrimidin-7-one], the IC50 against Cdk5/p25 stood at 110 nM; against cdk2/cyclinE (cdk2/E IC50) it was 120 nM; at cdk2/cyclinA (cdk2/A IC50), 290 nM; at cdc2/cyclinB it was 280 nM.

Regarding `CCCn1c(=O)ccc2cnc(Nc3cc(F)cc(F)c3)nc21` [Example 349, 2-(3,5-Difluoro-phenylamino)-8-propyl-8H-pyrido[2,3-d]pyrimidin-7-one], the IC50 was found to be 200 nM against Cdk5/p25, 530 nM against cdk2/cyclinE (cdk2/E IC50), 1100 nM at cdk2/cyclinA (cdk2/A IC50) and 880 nM against cdc2/cyclinB.

For `CCCn1c(=O)ccc2cnc(Nc3cccc(NC(C)=O)c3)nc21` [Example 353, N-[3-(7-Oxo-8-propyl-7,8-dihydro-pyrido[2,3-d]pyrimidin-2-ylamino)-phenyl]-acetamide], the IC50 turned out to be 230 nM against Cdk5/p25, 320 nM against cdk2/cyclinE (cdk2/E IC50), 460 nM against cdk2/cyclinA (cdk2/A IC50) and 710 nM against cdc2/cyclinB.

As to `CCCn1c(=O)ccc2cnc(Nc3ccc(O)c(CN4CCOCC4)c3)nc21` [Example 355, 2-(4-Hydroxy-3-morpholin-4-ylmethyl-phenylamino)-8-propyl-8H-pyrido[2,3-d]pyrimidin-7-one], the IC50 against Cdk5/p25 came out at 300 nM; against cdk2/cyclinE (cdk2/E IC50) it was 680 nM; on cdk2/cyclinA (cdk2/A IC50) it was 1100 nM; against cdc2/cyclinB, 500 nM.

As for `CCCn1c(=O)ccc2cnc(Nc3ccc(OC(F)(F)F)cc3)nc21` [Example 362, 8-Propyl-2-(4-trifluoromethoxy-phenylamino)-8H-pyrido[2,3-d]pyrimidin-7-one], the IC50 amounted to 190 nM at Cdk5/p25, 4000 nM at cdk2/cyclinA (cdk2/A IC50) and 270 nM against cdc2/cyclinB.

On to `CCCCn1c(=O)ccc2cnc(Nc3c(F)cc(F)cc3F)nc21` [Example 366, 8-Butyl-2-(2,4,6-trifluoro-phenylamino)-8H-pyrido[2,3-d]pyrimidin-7-one], for which the IC50 amounted to 699 nM against Cdk5/p25, 255 nM on cdk2/cyclinE (cdk2/E IC50), 882 nM against cdk2/cyclinA (cdk2/A IC50) and 1320 nM at cdc2/cyclinB.

Turning to `CCCCn1c(=O)ccc2cnc(Nc3cc(OC)c(OC)c(OC)c3)nc21` [Example 389, 8-Butyl-2-(3,4,5-trimethoxy-phenylamino)-8H-pyrido[2,3-d]pyrimidin-7-one], the IC50 worked out at 200 nM on Cdk5/p25, 320 nM against cdk2/cyclinE (cdk2/E IC50), 870 nM on cdk2/cyclinA (cdk2/A IC50) and 450 nM on cdc2/cyclinB.

Turning to `CC(C)n1c(=O)ccc2cnc(Nc3ccc(C#N)c(C#N)c3)nc21` [Example 423, 4-(8-Isopropyl-7-oxo-7,8-dihydro-pyrido[2,3-d]pyrimidin-2-ylamino)-phthalonitrile], the IC50 turned out to be 160 nM on Cdk5/p25, 1100 nM at cdk2/cyclinE (cdk2/E IC50), 2600 nM on cdk2/cyclinA (cdk2/A IC50) and 1800 nM against cdc2/cyclinB.

In the case of `CC(C)n1c(=O)ccc2cnc(Nc3ccc(O)c(CN4CCOCC4)c3)nc21` [Example 436, 2-(4-Hydroxy-3-morpholin-4-ylmethyl-phenylamino)-8-isopropyl-8H-pyrido[2,3-d]pyrimidin-7-one], the IC50 on cdk4/D came out at 1800 nM; against Cdk5/p25, 970 nM; at cdk2/cyclinE (cdk2/E IC50), 340 nM; at cdk2/cyclinA (cdk2/A IC50) it was 730 nM.

As to `Cc1ccc(Nc2ncc3ccc(=O)n(C(C)C)c3n2)cc1NS(C)(=O)=O` [Example 439, N-[5-(8-Isopropyl-7-oxo-7,8-dihydro-pyrido[2,3-d]pyrimidin-2-ylamino)-2-methyl-phenyl]-methanesulfonamide], the IC50 on cdk4/D was determined as 310 nM; on Cdk5/p25, 120 nM; against cdk2/cyclinA (cdk2/A IC50) it was 630 nM; on cdc2/cyclinB, 400 nM.

As to `CCC(C)n1c(=O)ccc2cnc(Nc3ccc(OC)c(F)c3)nc21` (stereo not drawn) [Example 462, 8-sec-Butyl-2-(3-fluoro-4-methoxy-phenylamino)-8H-pyrido[2,3-d]pyrimidin-7-one], the IC50 against Cdk5/p25 was 10 nM; against cdk2/cyclinE (cdk2/E IC50), 60 nM; against cdk2/cyclinA (cdk2/A IC50), 78 nM; on cdc2/cyclinB it was 88 nM.

`CCC(C)n1c(=O)ccc2cnc(Nc3cccc(C(F)(F)F)c3)nc21` (stereo not drawn) [Example 477, 8-sec-Butyl-2-(3-trifluoromethyl-phenylamino)-8H-pyrido[2,3-d]pyrimidin-7-one]: the IC50 against Cdk5/p25 is 38 nM; on cdk2/cyclinE (cdk2/E IC50) it was 260 nM; against cdk2/cyclinA (cdk2/A IC50), 370 nM; against cdc2/cyclinB, 170 nM.

For `CCC(CC)n1c(=O)ccc2cnc(Nc3cc(OC)c(OC)c(OC)c3)nc21` [Example 501, 8-(1-Ethyl-propyl)-2-(3,4,5-trimethoxy-phenylamino)-8H-pyrido[2,3-d]pyrimidin-7-one], the IC50 at Cdk5/p25 is 81 nM; against cdk2/cyclinE (cdk2/E IC50) it was 240 nM; against cdk2/cyclinA (cdk2/A IC50) it was 760 nM; on cdc2/cyclinB, 280 nM.

In the case of `O=c1ccc2cnc(Nc3ccc(F)c(C(F)(F)F)c3)nc2n1C1CCCC1` [Example 534, 8-Cyclopentyl-2-(4-fluoro-3-trifluoromethyl-phenylamino)-8H-pyrido[2,3-d]pyrimidin-7-one], the IC50 was found to be 340 nM on cdk4/D, 45 nM on Cdk5/p25, 340 nM on cdk2/cyclinA (cdk2/A IC50) and 190 nM on cdc2/cyclinB.

`Nc1c(Cl)cc(Nc2ncc3ccc(=O)n(C4CCCC4)c3n2)cc1Cl` [Example 557, 2-(4-Amino-3,5-dichloro-phenylamino)-8-cyclopentyl-8H-pyrido[2,3-d]pyrimidin-7-one]: the IC50 on cdk4/D was 120 nM; at Cdk5/p25 it was 96 nM; against cdk2/cyclinA (cdk2/A IC50) it was 130 nM; against cdc2/cyclinB, 73 nM.

`O=c1ccc2cnc(Nc3ccc(Br)c(C(F)(F)F)c3)nc2n1CC1CC1` [Example 589, 2-(4-Bromo-3-trifluoromethyl-phenylamino)-8-cyclopropylmethyl-8H-pyrido[2,3-d]pyrimidin-7-one]: the IC50 against Cdk5/p25 was found to be 570 nM; on cdk2/cyclinE (cdk2/E IC50) it was 190 nM; on cdk2/cyclinA (cdk2/A IC50) it was 710 nM; on cdc2/cyclinB it was 1300 nM.

Consider `O=c1ccc2cnc(Nc3ccc(C(F)(F)F)cc3)nc2n1CC1CC1` [Example 590, 8-Cyclopropylmethyl-2-(4-trifluoromethyl-phenylamino)-8H-pyrido[2,3-d]pyrimidin-7-one], for which the IC50 at cdk4/D amounted to 460 nM; against Cdk5/p25, 160 nM; against cdk2/cyclinA (cdk2/A IC50), 320 nM; against cdc2/cyclinB it was 650 nM.

Regarding `O=c1ccc2cnc(Nc3cc(Cl)c(O)c(Cl)c3)nc2n1CC(F)(F)F` [Example 598, 2-(3,5-Dichloro-4-hydroxy-phenylamino)-8-(2,2,2-trifluoro-ethyl)-8H-pyrido[2,3-d]pyrimidin-7-one], the IC50 against Cdk5/p25 was 525 nM; on cdk2/cyclinE (cdk2/E IC50), 523 nM; against cdk2/cyclinA (cdk2/A IC50), 970 nM; against cdc2/cyclinB it was 455 nM.
